Measured values from ChEMBL document CHEMBL3886595, “Compounds and compositions for inhibiting the activity of ABL1, ABL2 and BCR-ABL1” (2016).

What was measured:
[1] = target: T1, Tyrosine-protein kinase ABL1 (Homo sapiens, UniProt P00519); experiment: Radio ABL1 (64-515) Assay: For determination of ABL kinase activity, the radiometric filter-binding assay was used. The assay was performed by mixing 10 uL of the compound pre-diluted with 10 uL of ATP (20 uM ATP with 0.1 uCi [γ-33P]-ATP) with the phospho-acceptor peptide poly[Ala6Glu2LysHBr5Tyr1]=polyAEKY) in 20 mM Tris/HCl pH 7.5, 1 mM DTT, 10 mM MgCl2, 0.01 mM Na3VO4, 50 mM NaCl. 10 uL of …
T1 sequence (P00519 whole entry): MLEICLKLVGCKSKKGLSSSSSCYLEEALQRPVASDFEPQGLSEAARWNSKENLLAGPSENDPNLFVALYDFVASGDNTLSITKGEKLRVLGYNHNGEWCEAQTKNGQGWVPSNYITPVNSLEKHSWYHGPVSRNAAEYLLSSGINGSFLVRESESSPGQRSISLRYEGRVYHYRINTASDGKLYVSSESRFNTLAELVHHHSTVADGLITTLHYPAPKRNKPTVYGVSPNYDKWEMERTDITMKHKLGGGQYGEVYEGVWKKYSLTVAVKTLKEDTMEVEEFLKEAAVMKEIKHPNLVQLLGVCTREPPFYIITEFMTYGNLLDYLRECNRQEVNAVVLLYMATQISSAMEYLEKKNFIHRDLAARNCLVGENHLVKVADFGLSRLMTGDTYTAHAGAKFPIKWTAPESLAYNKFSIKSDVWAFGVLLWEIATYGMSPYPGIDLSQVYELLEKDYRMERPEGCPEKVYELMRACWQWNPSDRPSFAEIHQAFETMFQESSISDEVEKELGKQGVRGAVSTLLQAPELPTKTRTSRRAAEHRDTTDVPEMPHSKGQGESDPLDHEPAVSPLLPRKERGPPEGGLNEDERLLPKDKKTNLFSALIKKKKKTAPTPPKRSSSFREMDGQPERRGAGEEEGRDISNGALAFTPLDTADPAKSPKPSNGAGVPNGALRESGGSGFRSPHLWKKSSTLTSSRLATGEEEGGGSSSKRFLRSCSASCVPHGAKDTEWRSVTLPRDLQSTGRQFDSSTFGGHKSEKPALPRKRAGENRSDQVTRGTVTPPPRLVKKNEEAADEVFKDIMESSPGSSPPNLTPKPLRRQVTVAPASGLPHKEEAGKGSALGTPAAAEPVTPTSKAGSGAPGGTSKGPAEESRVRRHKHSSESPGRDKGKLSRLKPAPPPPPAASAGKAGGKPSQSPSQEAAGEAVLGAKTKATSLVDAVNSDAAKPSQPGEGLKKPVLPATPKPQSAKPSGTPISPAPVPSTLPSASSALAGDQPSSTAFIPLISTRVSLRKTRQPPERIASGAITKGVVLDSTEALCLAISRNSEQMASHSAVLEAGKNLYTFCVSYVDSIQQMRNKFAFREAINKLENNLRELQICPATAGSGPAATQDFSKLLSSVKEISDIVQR

[2] = target: T1, Tyrosine-protein kinase ABL1; experiment: Caliper ABL : The assay plates were prepared by addition of 50 nL per well of compound solution in 90% DMSO. The kinase reactions were started by stepwise addition of 4.5 uL per well of peptide/ATP-solution (50 mM HEPES, pH 7.5, 1 mM DTT, 0.02% BSA, 0.6% DMSO, 10 mM beta-glycerophosphate, and 10 uM sodium orthovanadate, 20 mM MgCl2, 2 mM MnCl2, 4 uM ATP, 4 uM peptide (FITC-Ahx-EAIYAAPFAKKK-NH2)) …

IC50 [1] [nM] | IC50 [2] [nM] | SMILES
6.3 | 0.6 | O=C(Nc1ccc(OC(F)(F)F)cc1)c1cnc(N2CC[C@H](CO)C2)c(-c2cncc(F)c2)c1
7 |  | Cc1ccc(-c2cc(C(=O)Nc3ccc(OC(F)(F)F)cc3)cnc2N2CC[C@H](N)C2)cn1
